Several values for one entry are separate records, joined by “and”; a condition that tells them apart may be missing. Equal entries are not always repeated.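 Briefly, cells in 96-well plates were exposed to five compound concentrations for 48 h, and endpoints were estimated by linear interpolation. The concentration for 50% growth inhibition is given as GI50. The concentration for full growth arrest is given as TGI.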
Experiments:
Experiment in all cases: NCI tumour cell line growth inhibition, 48 h
HOP-92 NSCLC = tested on: HOP-92 NSCLC
DMS 273 small cell lung = tested on: DMS 273 small cell lung
LXFL 529 NSCLC = tested on: LXFL 529 NSCLC
NCI-H460 lung = tested on: NCI-H460 lung
M19-MEL melanoma = tested on: M19-MEL melanoma
DLD-1 colon = tested on: DLD-1 colon
M14 melanoma = tested on: M14 melanoma
SN12C renal = tested on: SN12C renal
A498 renal = tested on: A498 renal
UACC-62 melanoma = tested on: UACC-62 melanoma
MCF7 breast = tested on: MCF7 breast
HS 578T breast = tested on: HS 578T breast

| SMILES | TGI (HOP-92 NSCLC) | TGI (DMS 273 small cell lung) | TGI (LXFL 529 NSCLC) | TGI (NCI-H460 lung) | TGI (M19-MEL melanoma) | TGI (DLD-1 colon) | TGI (M14 melanoma) | TGI (SN12C renal) | TGI (A498 renal) | TGI (UACC-62 melanoma) | TGI (MCF7 breast) | TGI (HS 578T breast) | GI50 (M14 melanoma) |
| --- | --- | --- | --- | --- | --- | --- | --- | --- | --- | --- | --- | --- | --- |
| C=C[C@@H](C)[C@]1(C(=O)OC)CCCC12OCCO2 | > 100 µM | > 100 µM | > 100 µM | > 100 µM | > 100 µM | > 100 µM | > 100 µM | > 100 µM | > 100 µM | > 100 µM | – | – | – |
| COC(COC(N)=O)C1=C(N2CC2)C(=O)C(C)=C(N2CC2)C1=O (stereo not drawn) | 1.15 µM | 0.0752 µM | 0.672 µM | 0.115 µM | 0.507 µM | 1.03 µM | 0.147 µM | 1.28 µM | 0.267 µM | 0.173 µM | 1 µM | – | – |
| CSc1ccc2c(cc1=O)[C@@H](NC(=O)c1cccc([N+](=O)[O-])c1)CCc1cc(O)c(O)c(O)c1-2 | > 100 µM | > 100 µM | > 100 µM | > 100 µM | 49.4 µM | > 100 µM | > 100 µM | 88.9 µM | 90.7 µM | 39.2 µM | – | – | – |
| Cc1ccc(C)c(N2C(=O)C(=O)C(c3nc4ccccc4s3)/C(=N/N)C2=O)c1 (stereo not drawn) | > 100 µM | > 100 µM | > 100 µM | > 100 µM | > 52.7 µM | > 100 µM | > 100 µM | > 100 µM | > 22.6 µM | > 100 µM | – | – | – |
| CCOC(OC(C)=O)[C@@H]1C=C[C@H](C)N(c2ccc([N+](=O)[O-])cc2)O1 (stereo partly drawn) | 16.2 µM | 13.4 µM | 10.8 µM | 34.2 µM | 5.3 µM | 11.1 µM | 9.44 µM | 22.3 µM | > 59.4 µM | 7.55 µM | – | – | – |
| COC(=O)c1cc2c(=O)n(C)c3ccccc3n2c1C(=O)OC | > 100 µM | > 100 µM | > 100 µM | > 100 µM | > 100 µM | > 100 µM | > 100 µM | > 100 µM | > 100 µM | > 100 µM | – | – | – |
| C=C(C)[C@H]1CC[C@@]2(C)C(C1)[C@H](C)CC[C@@H]2O (stereo partly drawn) | > 100 µM | > 100 µM | > 100 µM | > 100 µM | > 100 µM | > 100 µM | > 100 µM | > 100 µM | > 100 µM | > 100 µM | – | – | – |
| O=C1C=C(Nc2ccc(Cl)cc2Cl)c2ccccc2C1=O | 56.5 µM | 79.5 µM | > 100 µM | > 100 µM | 26.3 µM | > 100 µM | 57.8 µM | > 100 µM | > 100 µM | 32.8 µM | – | – | – |
| O=C1[C@H]2ON(c3ccccc3)C(c3ccc([N+](=O)[O-])cc3)[C@H]2C(=O)N1c1ccc(Cc2ccc(N3C(=O)[C@@H]4ON(c5ccccc5)C(c5ccc([N+](=O)[O-])cc5)[C@@H]4C3=O)cc2)cc1 (stereo partly drawn) | 99 µM | > 100 µM | > 100 µM | > 100 µM | > 100 µM | > 100 µM | 38.9 µM | > 100 µM | > 100 µM | > 100 µM | – | – | – |
| COC(=O)[C@@H]1c2cc3c(c(O)c2[C@@H](OC2OC(C)C(OC)C(C)(OC)C2OC)C[C@]1(C)O)C(=O)c1c(O)cc2c(c1C3=O)O[C@H]1O[C@]2(C)[C@H](O)[C@@H](N(C)C)[C@@H]1O (stereo partly drawn) | 0.0546 µM and 0.418 µM | 0.0282 µM | 1.28 µM | 0.0336 µM | 0.0156 µM and 0.0185 µM | 0.258 µM and 0.436 µM | 0.14 µM and 0.107 µM | 2 µM | 0.0162 µM | 0.0206 µM and 0.0277 µM | – | 0.147 µM | 0.0194 µM |
| N#C/C(=C\c1cc(O)cc(O)c1)C(N)=O | > 100 µM | > 100 µM | > 100 µM | > 100 µM | > 100 µM | > 100 µM | > 100 µM | > 100 µM | > 100 µM | > 100 µM | – | – | – |
| NC(=O)NNC(=O)CCn1[nH]c(=O)c(Cl)c(Cl)c1=O | > 100 µM | > 100 µM | > 100 µM | > 100 µM | > 100 µM | > 100 µM | > 100 µM | > 100 µM | > 100 µM | > 100 µM | – | – | – |
| O=C(C(=O)c1cc2ccccc2[nH]1)c1cc2ccccc2[nH]1 | > 347 µM | > 347 µM | > 347 µM | > 347 µM | > 347 µM | > 347 µM | > 347 µM | > 347 µM | > 347 µM | > 347 µM | – | – | – |
| C=CCC1(CN(C)C)CC/C(=C\c2ccc(OC)cc2)C1=O (stereo not drawn) | > 100 µM | > 100 µM | > 100 µM | > 100 µM | > 100 µM | > 100 µM | > 100 µM | > 100 µM | > 100 µM | > 100 µM | – | – | – |
| C=C(CCCCC)CN1CCCC1C(C)=O (stereo not drawn) | 63.8 µM | 53.1 µM | > 100 µM | > 85.3 µM | > 100 µM | > 100 µM | > 100 µM | 98.6 µM | > 93.5 µM | > 100 µM | – | – | – |
| O=C(/C=C\c1ccccc1O)c1ccc(O)cc1O | > 100 µM | > 100 µM | > 100 µM | > 100 µM | > 100 µM | > 100 µM | > 100 µM | > 100 µM | > 100 µM | > 100 µM | – | – | – |
| CCC[C@H]1O[C@@H]2CC(=O)O[C@@H]2C2=C1C(=O)C=CC2=O | 8.31 µM | 19.5 µM | 29.6 µM | > 100 µM | 41.7 µM | 35.8 µM | 32.8 µM | 32.6 µM | > 70.3 µM | 32.3 µM | – | – | – |
| CC1(C)OC2C(CCP(=O)(O)O)OC(c3nc(C(N)=O)cs3)C2O1 (stereo not drawn) | > 100 µM | > 100 µM | > 100 µM | > 100 µM | > 100 µM | > 100 µM | > 100 µM | > 100 µM | > 100 µM | > 100 µM | – | – | – |

Source: PubChem BioAssay (NCI)
